Experimental data: article PMC12150326 (The Journal of Organic Chemistry, 2025)
“And” between values parts separate entries of the source, which are not always exact repeats. Equal entries are not always repeated. Where two headings read alike, the source gives them in different places.

Tests used:
[1] = test system: DU-145; type: cell-based, human
Outline: (§1)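 The compounds are screened against the NCI-60 lines at 100, 10, 1, 0.1 and 0.01 μM. Growth response is expressed as TGI, and COMPARE correlates the TGI pattern with that of tubulin inhibitors.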

[2] = test system: SF-295; type: cell-based, human
Outline: (§2)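 Screening via NCI-60, five log concentrations from 0.01 to 100 μM; TGI compared by COMPARE with reference tubulin agents.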

[3] = test system: T-47D; type: cell-based, human
Outline: as §2

[4] = test system: KM12; type: cell-based, human; settings: KM12
Outline: as §1

[5] = test system: HOP-92; type: cell-based, human
Outline: as §2

[6] = test system: CCRF-CEM; type: cell-based, human
Outline: as §1

[7] = test system: UACC-257; type: cell-based, human
Outline: as §2

[8] = test system: NCI-H23; type: cell-based, human
Outline: as §2

[9] = test system: SF-268; type: cell-based, human
Outline: as §1

[10] = test system: HS 578T; type: cell-based, human
Outline: as §2

[11] = test system: ACHN; type: cell-based, human
Outline: as §1

[12] = test system: MDA-MB-435; type: cell-based, human
Outline: as §1

[13] = test system: HCT-116; type: cell-based, human
Outline: as §2

[14] = molecular target: colchicine site of bovine brain tubulin; type: binding; settings: tubulin binding constant, 25 °C; read-out: Kd
Description: Inhibition of this fluorescence increase was measured and converted to K d for the test compound as described.

[15] = test system: HOP-62; set-up: method as in NCI-60 database; settings: HOP-62 ref NCI-60 database, cited from earlier work
[16] = test system: NCI-H23; set-up: method as in NCI-60 database; settings: NCI-H23 ref NCI-60 database, cited from earlier work
[17] = test system: HOP-92; set-up: method as in NCI-60 database; settings: HOP-92 ref NCI-60 database, cited from earlier work
[18] = test system: UACC-257; set-up: method as in NCI-60 database; settings: UACC-257 ref NCI-60 database; cited from earlier work
[19] = test system: SNB-78; set-up: method as in NCI-60 database; settings: SNB-78 ref NCI-60 database, cited from earlier work
[20] = test system: NCI/ADR-RES; set-up: method as in NCI-60 database; settings: NCI/ADR-RES ref NCI-60 database; listed as 757/9; cited from earlier work
[21] = test system: IGROV1; set-up: method as in NCI-60 database; settings: IGROV1 ref NCI-60 database, cited from earlier work
[22] = test system: HS 578T; set-up: method as in NCI-60 database; settings: HS 578T ref NCI-60 database; cited from earlier work
[23] = test system: ACHN; set-up: method as in NCI-60 database; settings: ACHN ref NCI-60 database, cited from earlier work

SMILES: COc1cc(C)c(-c2ccc(OC)c(=O)cc2C)c(OC)c1OC (single isomer, unassigned) [(aS)-6]
- Log10GI50 [1]: > -4.00 Molar
- Log10LC50 [1]: > -4.00 Molar
- Log10TGI [1]: > -4.00 Molar
- Log10GI50 [2]: > -4.00 Molar
- Log10LC50 [2]: > -4.00 Molar
- Log10TGI [2]: > -4.00 Molar
- Log10GI50 [3]: > -4.00 Molar
- Log10LC50 [3]: > -4.00 Molar
- Log10TGI [3]: > -4.00 Molar
- Log10GI50 [4]: > -4.00 Molar
- Log10LC50 [4]: > -4.00 Molar
- Log10TGI [4]: > -4.00 Molar
- Log10GI50 [5]: -4.65 Molar
- Log10LC50 [5]: > -4.00 Molar
- Log10TGI [5]: > -4.00 Molar
- Log10GI50 [6]: > -4.00 Molar
- Log10LC50 [6]: > -4.00 Molar
- Log10TGI [6]: > -4.00 Molar
- Log10GI50 [7]: > -4.00 Molar
- Log10LC50 [7]: > -4.00 Molar
- Log10TGI [7]: > -4.00 Molar
- Log10GI50 [8]: > -4.00 Molar
- Log10LC50 [8]: > -4.00 Molar
- Log10TGI [8]: > -4.00 Molar
- Log10GI50 [9]: > -4.00 Molar
- Log10LC50 [9]: > -4.00 Molar
- Log10TGI [9]: > -4.00 Molar
- Log10GI50 [10]: > -4.00 Molar
- Log10LC50 [10]: > -4.00 Molar
- Log10TGI [10]: > -4.00 Molar
- Log10GI50 [11]: > -4.00 Molar
- Log10LC50 [11]: > -4.00 Molar
- Log10TGI [11]: > -4.00 Molar
- Log10GI50 [12]: -4.14 Molar
- Log10LC50 [12]: > -4.00 Molar
- Log10TGI [12]: > -4.00 Molar
- Log10GI50 [13]: > -4.00 Molar
- Log10LC50 [13]: > -4.00 Molar
- Log10TGI [13]: > -4.00 Molar
- Kd [14]: 230000 nM

SMILES: COc1cc2c(c(OC)c1OC)-c1ccc(OC)c(=O)cc1[C@@H](NC(C)=O)CC2 [Colchicine, (−)-Colchicine]
- Log10LC50 [15]: > -4.00 Molar
- Log10TGI [15]: > -4.00 Molar
- Log10GI50 ([15]; listed as 757/9): -7.43 Molar
- GI50 [16]: 30 nM
- Log10GI50 [16]: -7.54 Molar
- Log10LC50 ([16]; listed as 757/9): -7.14 Molar
- Log10LC50 ([16]; listed as 757/21): > -4.00 Molar
- Log10TGI ([16]; listed as 757/21): > -4.00 Molar
- Log10LC50 [17]: > -4.00 Molar
- Log10GI50 ([17]; listed as 757/1): -7.73 Molar
- Log10TGI ([17]; listed as 757/1): > -4.00 Molar
- Log10GI50 ([17]; listed as 757/21): < -8.00 Molar
- GI50 [18]: > 100000 nM
- Log10GI50 [18]: > -4 Molar
- Log10LC50 [18]: > -4.00 Molar
- Log10TGI [18]: > -4.00 Molar
- Log10LC50 [19]: > -4.00 Molar
- Log10TGI [19]: > -4.00 Molar
- Log10GI50 ([19]; listed as 757/21): -7.88 Molar and < -8.00 Molar
- Log10GI50 [20]: -6.59 Molar and -6.31 Molar
- GI50 [21]: 52 nM
- Log10GI50 [21]: -7.28 Molar
- Log10LC50 [21]: > -4.00 Molar
- Log10GI50 ([21]; listed as 757/9): < -8.00 Molar
- Log10TGI ([21]; listed as 757/9): -7.80 Molar
- Log10TGI ([21]; listed as 757/21): > -4.00 Molar
- Log10LC50 [22]: > -4.00 Molar
- GI50 [23]: 372 nM
- Log10GI50 [23]: -6.43 Molar
- Log10LC50 [23]: > -4.00 Molar
- Log10TGI [23]: > -4.00 Molar
- Log10GI50 ([23]; listed as 757/21): -6.40 Molar and -6.43 Molar
